From patent publication US9365851B2, “Spalt-like transcription factor 4 (SALL4) and uses thereof” (National University of Singapore, priority 2011, dated 2016)

System: SALL4
Assay: SALL4 RNA knock-down in primary AML cells (qRT-PCR)
Format: cell-based, human
Settings: qRT-PCR normalized to GAPDH
Text: FIG. 6: Down-regulation of SALL4 in primary AML led to cell death. (6A) Down-regulation of SALL4 in primary AML cells. The ability of shRNA constructs 7412 to knock down SALL4 mRNA in AML cells were confirmed by qRT-PCR with normalization to GAPDH. The expression of SALL4 RNA in AML cells that were infected with SALL4 shRNA (7412)-expressing retroviruses was reduced to 35% of those infected with scrambled pRS control vectors, a shRNA pRS against non-effective GFP sequence from OriGene Technologies, Inc., Rockville Md. (N=3, Error Bars: +/−SD). (6B) Increased apoptosis and cell death were observed via flow cytometry in AML cells upon SALL4 knock down by Annexin V/PI staining. Control scrambled shRNA-infected cells and SALL4 shRNA-infected cells were analyzed 24 to 48 h post transduction. Data were derived from four independent experiments. (6C-6F) Leukemia development in xenotransplant recipient mice. AML is defined as blast count more than 20% in peripheral blood and/or bone marrow with multiple organ involvements observed in recipient mice. Blasts were present in liver (6C, ×200), spleen (6D, ×200), and bone marrow (6E, ×200), and were human CD45 positive (6F). […]

Sequence: GATGCCTTGAAACAAGCCAAGCTACCTCA (chemistry not given here) [compound 7412, SALL4 shRNA used in primary AML cells]
- SALL4 RNA expression relative to scrambled control: 35%
